Test results published in patent US8366933B2, “Method for bacterial treatment of effluents containing 2-ethylhexyl nitrate” (Commissariat a l'Energie Atomique, priority 2007, dated 2013).

Legend:
[1] = system: C. urealyticum CIP-I-2126 strain; assay: 2-EHN degradation with a non-biodegradable hydrophobic liquid phase (respirometer); type: cell-based, Corynebacterium urealyticum; details: per flask containing 500 mL medium at 500 mg/L 2-EHN
Procedure: The capacity for degradation of 2-EHN by the C. urealyticum CIP-I-2126 strain in the presence of a non-biodegradable hydrophobic liquid phase used as a substrate reservoir is studied. The cultures were carried out at 30° C. with a respirometer so as to determine the kinetic characteristics of the biodegradation.
Two non-biodegradable liquid phases were tested: 2,2,4,4,6,8,8-heptamethylnonane (HMN) and silicone oil (Table 3).

[2] = cited from earlier work
[3] = cited from earlier work; remark: listed apart in the source
zebrafish = details: acute toxicity; cited from earlier work
Daphnia = details: acute toxicity; cited from earlier work

With `CCCCC(CC)CO[N+](=O)[O-]` (stereo not shown) [2-EHN, 2-ethylhexyl nitrate] as the compound, how does the “MAXIMUM DEGRADATION RATE (MMOLO2/J)” value ([1]; liquid phase added: HMN) read?
The value was 5.3 MMOLO2/J.

And the “MAXIMUM DEGRADATION RATE (MMOLO2/J)” value ([1]; liquid phase added: Silicone oil)?
The value was 5.8 MMOLO2/J.

And the “MAXIMUM DEGRADATION RATE (MMOLO2/J)” value ([1]; liquid phase added: none)?
Its value is 0.3 MMOLO2/J.

What about the “Vapour pressure at 20° C.” value [2] of the same compound?
Its value is 27 Pa.

And the “Solubility at 20° C.” value [3]?
Its value is 12.6 µg/mL.

And the “LC50 (50% lethal concentrations)” value (zebrafish)?
The value was “higher than its water solubility”.

What about the “LC50 (50% lethal concentrations)” value (Daphnia) of the same compound?
The value was “higher than its water solubility”.
